Patent publication US4138492A, “Aromatic amides of heterocyclic compounds and therapeutic compositions containing same” (priority 1974, dated 1979)
Read-outs that look alike come from different tables or passages of the source.

Assays:
[1] = tested on: gastric emptying; assay: Decrease of gastric emptying time in rats; assay type: in vivo, rat; details: compared with metoclopramide
[2] = tested on: apomorphine-induced vomiting; assay: Apomorphine-induced vomiting in the dog; assay type: in vivo
[3] = tested on: convulsions induced by leptazol; assay: Leptazol-induced convulsions in the mouse; assay type: in vivo
[4] = Metabolism and pharmacokinetics in the rat; assay type: in vivo
[5] = tested on: inflammation; assay: Anti-inflammatory activity; details: in vivo
[6] = tested on: autonomic nervous system; assay: Effect on the autonomic nervous system; details: in vivo
[7] = tested on: parasympathetic system; assay: Parasympatholytic activity; details: in vivo
[8] = Metabolism and pharmacokinetics in the rabbit; assay type: in vivo
[9] = tested on: cardiovascular and respiratory systems; assay: Cardiovascular and respiratory effects in cats anaesthetized with chloralose; assay type: in vivo
Source text: HCl-Clebopride salt has weak effects on the cardiovascular and respiratory systems.

[10] = Therapeutic effect and side effects in humans; assay type: in vivo; details: suitable doses
Procedure: They may be used in doses of from 0.1 to 1000 mg per day for the treatment of nausea and vomiting due to gastrointestinal disorders, congestive heart failure, post operative conditions, etc., other gastrointestinal tract disorders such as dyspepsia, flatulence, bile regurgitations, hiatus hernia, peptic ulcer, reflux aerophagitis, gastritis, duodenitis and cholethiasis, and as an adjunt to radiography of the gastrointestinal tract and for overcoming gastrointestinal stasis for diagnostic or therapeutic purposes and a variety of conditions affecting the central nervous system such as acute and chronic psychoses, maniacal psychosis, schizophrenias, serious disturbances of behavior and non-melancholic depressive state and migraine.
A number of the instant compounds, particularly the hydrogen chloride, malate and methanesulfonate salts of Clebopride have been extensively tested in humans to determine maximum dosages and the therapeutic effects of the compounds. These compounds have been administered to humans orally and parenterally.
Dosages of between 0.1 and 30 mg per day have been shown useful depending upon the length of treatment and therapeutic effect desired.

[11] = tested on: apomorphine-induced gnawing; assay: Antiapomorphine activity (apomorphine-induced gnawing) in the rat; assay type: in vivo; details: for ED50: Rattus norvegicus, po, per os
Source text: A number of the compounds of the present invention were screened in parallel with metoclopramide for potential anti-emetic effects against apomorphine-induced gnawing in the rat and as local anaesthetics on the rat sciatic nerve (Table I).
*Antiapomorphine activity in rat scored as […]

[12] = Local anaesthetic activity in mice; assay type: in vivo; details: compared with metoclopramide or procaine
[13] = tested on: spontaneous motor activity; assay: Spontaneous motor activity in the mouse
[14] = tested on: electrically induced convulsions; assay: Electrically induced convulsions in mice; assay type: in vivo
[15] = tested on: incoordination; assay: Incoordination on accelerating rota-rod in the mouse
[16] = tested on: oxotremorine; assay: Oxotremorine test in mice; details: mice previously treated with sub-threshold dose of oxotremorine
[17] = in vivo; details: rat, po
[18] = tested on: convulsions induced by strychnine; assay: Strychnine-induced convulsions in the mouse; assay type: in vivo
[19] = tested on: writhing syndrome; assay: Writhing syndrome induced by intra-peritoneal acetic acid in mice; assay type: in vivo; details: 300 mg/kg per os
Source text: The HCl-Clebopride salt does have antipyretic and analgesic activity.

[20] = tested on: catatonia in rats
[21] = tested on: gastric emptying time in humans; assay: Gastric emptying in humans, evaluated by radiologist; assay type: in vivo
Source text: The evaluation was based on the subjective opinion of the radiologist in terms of the time required for the appearance of peristaltic waves and their capacity to evacuate. the stomach, according to the following scheme:

[22] = cats, slow intravenous infusion 1 mg/kg/min. to total 10 mg/kg
[23] = 2 mg, compared with 20 mg of metoclopramide

SMILES: COc1cc(N)c(Cl)cc1C(=O)NC1CCN(Cc2ccccc2)CC1 [Compound 2, N-[4'-(1'-benzyl)-piperidyl]-2-methoxy-4-amino-5-chloro-benzamide]
- ability to decrease gastric emptying time, potency [1]: potency similar to that of metoclopramide
- activity against apomorphine-induced vomiting [2]: high activity
- ED50 ([2]; Canis lupus familiaris, po, per os, Table II, read-out: ED50 (95% confidence limits), apomorphine induced vomiting): 0.0435 mg/kg
- potency relative to metoclopramide ([2]; oral route): approximately 8 times
- inhibition of clonic seizures induced by leptazol [3]: apparently not clonic seizures
- inhibition of tonic convulsions (antileptazol) [3]: inhibits tonic convulsions
- N-Debenzylation [4]: major metabolic reaction
- cleavage of the amide bond [4]: does not appear to be a major matabolic reaction
- extent of metabolism [4]: extensively metabolized
- unchanged drug excreted in the urine [4]: Only very little
- anti-inflammatory activity [5]: weak anti-inflammatory activity
- effect on the autonomic nervous system [6]: does not have an appreciable effect
- parasympatholytic activity [7]: no appreciable parasympatholytic activity
- N-Debenzylation [8]: major metabolic reaction
- cleavage of the amide bond [8]: does not appear to be a major matabolic reaction
- conjugation with glucuronic acid and/or sulphate [8]: occurs at a large extent in the rabbit
- extent of metabolism [8]: extensively metabolized
- unchanged drug excreted in the urine [8]: Only very little
- blood pressure [9, 22]: slight fall
- heart rate [9, 22]: slight fall
- respiratory movements [9, 22]: slowing of respiratory movements
- effects on the cardiovascular and respiratory systems ([9]; in vivo): weak effects
- side effects [10]: virtually free of side effects
- ED50 ([11]; Table I, read-out: ED50 Values): ~3 mg/kg
- activity as an anti-emetic ([11]; compared with metoclopramide, from Table I): more active as an anti-emetic
- local anaesthetic potency [12]: somewhat greater than that of either metoclopramide or procaine
- spontaneous motor activity [13]: inhibit spontaneous motor activity
- anti-convulsant activity ([14]; mouse, in vivo): has anti-convulsant activity
- incoordination [15]: cause incoordination

SMILES: COc1cc(N)c(Cl)cc1C(=O)NC1CCN(Cc2ccccc2)CC1 [Clebopride, N-[4'-(1'-benzyl)-piperidyl]-2-methoxy-4-amino-5-chloro-benzamide]
- pharmacokinetics after intravenous administration ([4]; intravenous): follows a similar pattern in both species
- salivation and tremors [16]: capable of causing salivation and tremors
- TD50 [17]: 47.6 mg/kg
- pharmacokinetics after intravenous administration ([8]; intravenous): follows a similar pattern in both species
- inhibition of convulsions induced by strychnine [18]: neither Clebopride nor metoclopramide appear to inhibit convulsions induced by strychnine
- ED50 ([11]; rats, Table III, read-out: Antiapomorphine Activity, Rats, ED50 (95% confidence limits)): 1.85 mg/kg
- inhibition of writhing syndrome [19]: almost completely inhibited the writhing syndrome
- catatonia ([20]; rat, in words): noted in the rat
- antiemetic doses compared with those causing catatonia ([20]; rats, Table III): exhibits antiemetic activity (anti-apomorphine activity) at doses which are far removed from those causing catatonia
- No. of Patients with + (no effect) ([21]; 0.2 mg by mouth, 6 patients): 0
- No. of Patients with ++ (moderate effect) ([21]; 0.2 mg by mouth, 6 patients): 0
- No. of Patients with +++ (good effect) ([21]; 0.2 mg by mouth, 6 patients): 6
- No. of Patients with ++++ (maximum effect) ([21]; 0.2 mg by mouth, 6 patients): 0
- contraction of the stomach ([21]; 0.2 mg, compared with 20 mgs of metoclopramide): as rapid and forceful contraction of the stomach as 20 mgs of metoclopramide
- No. of Patients with + (no effect) ([21]; 1 mg by mouth, 6 patients): 1
- No. of Patients with ++ (moderate effect) ([21]; 1 mg by mouth, 6 patients): 2
- No. of Patients with +++ (good effect) ([21]; 1 mg by mouth, 6 patients): 3
- No. of Patients with ++++ (maximum effect) ([21]; 1 mg by mouth, 6 patients): 0
- No. of Patients with + (no effect) ([21]; 2 mg by mouth, 8 patients): 0
- No. of Patients with ++ (moderate effect) ([21]; 2 mg by mouth, 8 patients): 2
- No. of Patients with +++ (good effect) ([21]; 2 mg by mouth, 8 patients): 3
- No. of Patients with ++++ (maximum effect) ([21]; 2 mg by mouth, 8 patients): 3
- contraction of the stomach [21, 23]: more forceful contraction than 20 mg of metoclopramide
- onset of action [21, 23]: more rapid onset of action
- No. of Patients with + (no effect) ([21]; 5 mg by mouth, 9 patients): 0
- No. of Patients with ++ (moderate effect) ([21]; 5 mg by mouth, 9 patients): 2
- No. of Patients with +++ (good effect) ([21]; 5 mg by mouth, 9 patients): 0
- No. of Patients with ++++ (maximum effect) ([21]; 5 mg by mouth, 9 patients): 7
- potency in preventing electrically induced convulsions ([14]; mice): somewhat more potent than metoclopramide
